This is an account of results in patent US20240034733A1, “KRAS G12D INHIBITORS” (Mirati Therapeutics, Inc., priority 2020, published 2024).

The term IC50 denotes the midpoint of a concentration-inhibition curve. By Kd is commonly meant the constant that tells how readily two partners part at equilibrium.

For assay [1], the target named is T1, GDP-loaded recombinant human KRAS G12D (Homo sapiens, UniProt P01116, G12D).
T1 construct: corresponding to amino acids 1:169, produced at Array BioPharma; biotin (biotinylated); made in house
In words: KRas G12D Binding Assay (TR-FRET displacement of Cy5 labelled tracer). To be noted: 60 minute incubation at 22° C. How it is done:
This Example illustrates that exemplary compounds of the present invention bind to KRas G12D and are capable of displacing a labeled tracer ligand occupying the KRas G12D binding site.
The ability of a compound to bind to KRAS G12D was measured using a TR-FRET displacement assay. Biotinylated GDP-loaded recombinant human KRAS G12D (corresponding to amino acids 1:169, produced at Array BioPharma) was incubated with a custom-made Cy5 labelled tracer, europium labelled streptavidin and compound (2% DMSO final) in buffer (50 mM HEPES [pH 7.5], 5 mM MgCl2, 0.005% Tween-20 & 1 mM DTT). After a 60 minute incubation at 22° C., the reaction was measured using a PerkinElmer EnVision multimode plate reader via TR-FRET dual wavelength detection, and the percent of control (POC) calculated using a ratiometric emission factor. […] The POC values were fit to a 4-parameter logistic curve and the IC50 value was determined as the concentration where the curve crosses 50 POC.
Background: Time-resolved FRET reads energy transfer from a long-lived donor to a nearby acceptor.

The target of a further assay is T2, KRas G12D (Homo sapiens, UniProt P01116, G12D).
T2 construct: Avidin-tag (so in the source)
In words: KRas G12D Surface Plasmon Resonance (SPR) Binding Assay. To be noted: Biacore T200, 20° C., 1:1 binding model, read-out: KD (nM), Determination of KRas G12D KD. How it is done: This Example illustrates that exemplary compounds of the present invention bind to KRas G12D as measured by surface plasmon resonance (SPR).
Briefly, 1 L of 1.05×HBS-Mg buffer (262.5 mM BioUltra Hepes, pH 7.5, 157.5 mM NaCl, 105 mM MgCl2, 0.525 mM TCEP, 0.0305% Brij-35) was prepared and filter sterilized using a 0.22 μm bottle top filter. Approximately 50 mL of 1.05×HBS-Mg buffer was removed and saved for future dilutions. A 50 mL aliquot of DMSO (Sigma Aldrich DMSO Lot. #SHBK2079) was added and continued to stir for 10 minutes, creating the final 1.0×HBS-Mg buffer (250 mM BioUltra Hepes pH 7.5, 150 mM NaCl, 100 mM MgCl2, 0.5 mM TCEP, 0.03% Brij-35).
Biacore T200 instrument was primed using 1.0×HBS-Mg buffer before docking a GE Streptavidin (SA) chip and then primed two additional times prior to beginning the immobilization step. All immobilized protein mixtures were created using 3-5 mg/mL Biotinylated Avidin-tagged KRAS protein using the following immobilization settings: SA chip type, 1 flow cells per cycle, 720 second contact time, and 5 μL/min flow rate. Normalization of the detector was also performed during the immobilization step using the GE BiaNormalize solution.
All compounds were diluted to 10 mM in 100% DMSO prior to being diluted 20× in 1.05× buffer. Another 10× dilution was created using 1.0× buffer prior to performing a series of 3×dilutions to create a compound concentration curve using the following assay settings: 20° C. analysis temperature, General Settings=10 Hz data collection rate and multi-detection; Assay Steps=all set to LMW kinetics; Cycle Types=LMW kinetics (60 s contact time, 120 s dissociation time, 100 μL/min flow rate, extra wash after injection with 50% DMSO, flow path 1, 2, 3, 4); Flow path detection=2−1, 4−3). Data evaluation was performed using the Biacore T200 Evaluation software and data fit to 1:1 binding model.

For assay [2], the system named is KRas G12D-mediated phosphorylation of ERK. Put plainly: Inhibition of KRas G12D-mediated phosphorylation of ERK in AGS cells. In kind it is cell-based. To be noted: Homo sapiens; AGS cells expressing G12D, 3 hours, phospho-ERK normalized to GAPDH. How it is done:
AGS cells (ATCC CRL-1739) expressing G12D were grown in DMEM medium supplemented with 10% fetal bovine serum, 10 mM HEPES, and Penicillin/Streptomycin. Cells were plated in tissue culture treated 96 well plates at a density of 40,000 cells/well and allowed to attach for 12-14 hours. Diluted compounds were then added in a final concentration of 0.5% DMSO. After 3 hours, the medium was removed, 150 μl of 4.0% formaldehyde was added and the plates incubated at room temperature for 20 minutes. The plates were washed with PBS, and permeabilized with 150p of ice cold 100% methanol for 10 minutes. Non-specific antibody binding to the plates was blocked using 100 μL Licor blocking buffer (Li-Cor Biotechnology, Lincoln NE) for 1 hour at room temperature.
The amount of phosho-ERK was determined using an antibody specific for the phosphorylated form of ERK and compared to the amount of GAPDH. Primary antibodies used for the detection were added as follows: Phospho-ERK (Cell Signaling cs-9101) diluted 1:500 and GAPDH (Millipore MAB374) diluted 1:5000 in Licor block+0.05% Tween 20. The plates were incubated for 2 hours at room temperature. The plates were washed with PBS+0.05% Tween 20.
Secondary antibodies used to visualize primary antibodies were added as follows: Anti-rabbit-680 diluted 1:1000 and Anti-mouse-800 diluted 1:1000 both in Licor block+0.05% Tween20, and were incubated for 1 hour at room temperature. The plates were washed with PBS +0.05% Tween 20. A 100 μl aliquot of PBS was added to each well and the plates were read on a Li-Cor Odyssey CLX plate reader phospho-ERK (Thr202/Tyr204) signal was normalized to the GAPDH signal for each well and percent of DMSO control values were calculated. IC50 values were generated using a 4-parameter fit of the dose response curve

T1 sequence (P01116 1-169 isoform P01116-2 G12D): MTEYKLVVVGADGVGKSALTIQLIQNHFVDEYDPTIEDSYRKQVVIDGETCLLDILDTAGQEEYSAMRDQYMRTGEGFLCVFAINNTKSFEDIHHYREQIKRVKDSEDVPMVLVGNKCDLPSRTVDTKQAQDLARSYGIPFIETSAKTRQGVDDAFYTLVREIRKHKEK
T2 sequence (P01116 1-188 isoform P01116-2 G12D): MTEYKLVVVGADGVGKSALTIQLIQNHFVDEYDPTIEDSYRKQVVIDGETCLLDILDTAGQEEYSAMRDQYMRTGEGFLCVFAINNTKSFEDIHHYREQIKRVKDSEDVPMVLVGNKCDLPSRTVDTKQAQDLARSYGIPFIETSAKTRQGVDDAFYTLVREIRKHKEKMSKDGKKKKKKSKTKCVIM

`Fc1c(-c2cccc3cccc(Cl)c23)ccc2c(N3C[C@H]4CC[C@@H](C3)N4)nc(OCC34CCCN3CCC4)nc12` [Example 2, 4-((1R,5S)-3,8-diazabicyclo[3.2.1]octan-3-yl)-7-(8-chloronaphthalen-1-yl)-8-fluoro-2-((tetrahydro-1H-pyrrolizin-7a(5H)-yl)methoxy)quinazoline]: the IC50 in assay [1] was found to be 6.1 nM; in assay [2], 4540 nM. In addition, the Kd on KRas G12D is 8 nM.

Consider `CN1CCC[C@H]1COc1nc(N2C[C@H]3CC[C@@H](C2)N3)c2cc(Cl)c(-c3cc(O)cc4ccccc34)c(F)c2n1` [Example 7, 4-(4-((1R,5S)-3,8-diazabicyclo[3.2.1]octan-3-yl)-6-chloro-8-fluoro-2-(((S)-1-methylpyrrolidin-2-yl)methoxy)quinazolin-7-yl)naphthalen-2-ol], for which the IC50 in assay [1] was 11.2 nM; in assay [2] it was 1420 nM. On KRas G12D, the Kd was determined as 9 nM.

Consider `CN1CCC[C@H]1COc1nc(N2C[C@H]3CC[C@@H](C2)N3)c2ccc(-c3cc(O)cc4ccccc34)c(F)c2n1` [Example 8, 4-(4-((1R,5S)-3,8-diazabicyclo[3.2.1]octan-3-yl)-8-fluoro-2-(((S)-1-methylpyrrolidin-2-yl)methoxy)quinazolin-7-yl)naphthalen-2-ol], for which the IC50 in assay [1] came to 4.3 nM; in assay [2], 271 nM. In addition, at KRas G12D, the Kd stood at 3 nM.

Consider `CN1CCC[C@H]1COc1nc(N2C[C@H]3CC[C@@H](C2)N3)c2ccc(-c3cc(O)cc4ccccc34)cc2n1` [Example 10, 4-(4-((1R,5S)-3,8-diazabicyclo[3.2.1]octan-3-yl)-2-(((S)-1-methylpyrrolidin-2-yl)methoxy)quinazolin-7-yl)naphthalen-2-ol], for which the results for the IC50 in assay [1] and in assay [2] were 22.9 nM and 5660 nM, respectively. Also, the Kd at KRas G12D is 19 nM.

As to `CN1CCC[C@H]1COc1nc(N2CC3CCC2CN3)c2cc(Cl)c(-c3cc(O)cc4ccccc34)c(F)c2n1` (stereo partly drawn) [Example 11, 4-((7R)-4-(2,5-diazabicyclo[2.2.2]octan-2-yl)-6-chloro-8-fluoro-2-(((S)-1-methylpyrrolidin-2-yl)methoxy)quinazolin-7-yl)naphthalen-2-ol], the IC50 in assay [1] amounted to 10.4 nM; in assay [2], 2840 nM. The Kd at KRas G12D stood at 16 nM.

Turning to `CN1CCC[C@H]1COc1nc(N2CCNC3(CC3)C2)c2ccc(-c3cc(O)cc4ccccc34)c(F)c2n1` [Example 12, (S)-4-(8-fluoro-2-((1-methylpyrrolidin-2-yl)methoxy)-4-(4,7-diazaspiro[2.5]octan-7-yl)quinazolin-7-yl)naphthalen-2-ol], the Kd at KRas G12D came out at 110 nM. This molecule displayed an IC50 in assay [2] of 5560 nM.

Consider `CN1CCC[C@H]1COc1nc(N2C[C@H]3CC[C@@H](C2)N3)c2ccc(-c3cccc4ccc(F)cc34)c(F)c2n1` [Example 13, 4-((1R,5S)-3,8-diazabicyclo[3.2.1]octan-3-yl)-8-fluoro-7-(7-fluoronaphthalen-1-yl)-2-(((S)-1-methylpyrrolidin-2-yl)methoxy)quinazoline], for which the IC50 in assay [1] amounted to 61.9 nM; in assay [2], 5560 nM. Moreover, the dissociation constant (Kd) on KRas G12D came to 78 nM.

As to `CN1CCC[C@H]1COc1nc(N2CC3CCC2CN3)c2cnc(-c3cc(O)cc4ccccc34)c(F)c2n1` (stereo partly drawn) [Example 14, 4-(4-(2,5-diazabicyclo[2.2.2]octan-2-yl)-8-fluoro-2-(((S)-1-methylpyrrolidin-2-yl)methoxy)pyrido[4,3-d]pyrimidin-7-yl)naphthalen-2-ol], the IC50 was found to be 30.8 nM in assay [1] and 8610 nM in assay [2]. The Kd at KRas G12D was determined as 36 nM.

As for `CN1CCC[C@H]1COc1nc(N2C[C@H]3CC[C@@H]2CN3)c2cnc(-c3cc(O)cc4ccccc34)c(F)c2n1` [Example 15, 4-(4-((1R,4R)-2,5-diazabicyclo[2.2.2]octan-2-yl)-8-fluoro-2-(((S)-1-methylpyrrolidin-2-yl)methoxy)pyrido[4,3-d]pyrimidin-7-yl)naphthalen-2-ol], the Kd on KRas G12D turned out to be 93 nM. In assay [2], this molecule had an IC50 of 7120 nM.

For the molecule `CN1CCC[C@H]1COc1nc2c(c(N3CC4CCC3CN4)n1)CCN(c1cc(O)cc3ccccc13)C2` (stereo partly drawn) [Example 16, 4-(4-(2,5-diazabicyclo[2.2.2]octan-2-yl)-2-(((S)-1-methylpyrrolidin-2-yl)methoxy)-5,8-dihydropyrido[3,4-d]pyrimidin-7(6H)-yl)naphthalen-2-ol], the values for the IC50 in assay [1] and in assay [2] were 152 nM and 5950 nM, respectively. Also, the Kd at KRas G12D turned out to be 300 nM.

On to `CN1CCC[C@H]1COc1nc(N2C[C@H]3CC[C@@H](C2)N3)c2cc(Oc3c(Cl)cccc3C#N)c(-c3cc(O)cc4ccccc34)c(F)c2n1` [Example 25, 2-((4-((1R,5S)-3,8-diazabicyclo[3.2.1]octan-3-yl)-8-fluoro-7-(3-hydroxynaphthalen-1-yl)-2-(((S)-1-methylpyrrolidin-2-yl)methoxy)quinazolin-6-yl)oxy)-3-chlorobenzonitrile], for which the results for the IC50 in assay [1] and in assay [2] were 5.3 nM and 784 nM, respectively.

For `CN1CCC[C@H]1COc1nc(N2C[C@H]3CC[C@@H](C2)N3)c2cc(Oc3cccc(F)c3C#N)c(-c3cc(O)cc4ccccc34)c(F)c2n1` [Example 26, 2-((4-((1R,5S)-3,8-diazabicyclo[3.2.1]octan-3-yl)-8-fluoro-7-(3-hydroxynaphthalen-1-yl)-2-(((S)-1-methylpyrrolidin-2-yl)methoxy)quinazolin-6-yl)oxy)-6-fluorobenzonitrile], the IC50 in assay [1] stood at 7.4 nM; in assay [2], 3540 nM.

Turning to `CN1C[C@H](F)C[C@H]1COc1nc(N2C[C@H]3CC[C@@H](C2)N3)c2ccc(-c3cc(O)cc4ccccc34)c(F)c2n1` [Example 29, 4-(4-((1R,5S)-3,8-diazabicyclo[3.2.1]octan-3-yl)-8-fluoro-2-(((2S,4R)-4-fluoro-1-methylpyrrolidin-2-yl)methoxy)quinazolin-7-yl)naphthalen-2-ol], the IC50 in assay [1] was determined as 1.8 nM; in assay [2], 779 nM. Also, the Kd at KRas G12D came to 5 nM.

Turning to `Cc1cc2[nH]ncc2c(-c2ccc3c(N4C[C@H]5CC[C@@H](C4)N5)nc(OC[C@@H]4CCCN4C)nc3c2F)c1C` [Example 30, 4-((1R,5S)-3,8-diazabicyclo[3.2.1]octan-3-yl)-7-(5,6-dimethyl-1H-indazol-4-yl)-8-fluoro-2-(((S)-1-methylpyrrolidin-2-yl)methoxy)quinazoline], the results for the IC50 in assay [1] and in assay [2] were 57 nM and 5090 nM, respectively. The Kd at KRas G12D was 152 nM.
